The term IC50 denotes the point on the concentration scale where inhibition reaches its midpoint. For orientation: EC50 means the concentration needed to bring the measured effect to its halfway point. One may read the half-life as the time needed for the level to fall by half in the phase considered. A high value points to slow decline.

Where “and” joins values, the source holds several entries; their conditions need not be identical. Equal entries are not always repeated. Entries after “also recorded” stand apart in the source; their conditions may differ.

In data set [1] the target is T1, Mcl-1 (Homo sapiens, UniProt Q07820).
T1 construct: made in house; host or cells: E. coli
T1 sequence (Q07820 whole entry): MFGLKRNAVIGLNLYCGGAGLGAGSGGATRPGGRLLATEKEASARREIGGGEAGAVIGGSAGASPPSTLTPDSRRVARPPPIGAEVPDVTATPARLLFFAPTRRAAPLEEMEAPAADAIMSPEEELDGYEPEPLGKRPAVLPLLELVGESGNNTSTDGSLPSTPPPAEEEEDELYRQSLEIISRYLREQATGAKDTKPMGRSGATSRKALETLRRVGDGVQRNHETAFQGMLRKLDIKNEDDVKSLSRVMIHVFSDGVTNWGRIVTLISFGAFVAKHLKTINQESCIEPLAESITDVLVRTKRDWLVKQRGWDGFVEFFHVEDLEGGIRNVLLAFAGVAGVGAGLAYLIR
The data set is described as follows: Fluorescence polarization assay, Bim BH3 peptide binding to GST-Mcl-1. Conditions: fluorescence polarization, Bim-BH3-FITC peptide, GST-Mcl-1; read-out: IC50, inhibition of Bim-BH3 peptide binding to Mcl-1. An excerpt:
(§1) A nineteen amino acid peptide, corresponding to the BH3 domain of Bim, with the sequence FITC-GGGIAQELRRIGDEFNAY (SEQ ID NO: 1) was labeled with the tluorophore FITC according to the manufacturer's instructions (Molecular Probes, Eugene, Oreg.). This sequence was identified as being able to bind to purified Bcl-xL protein (Sattler et al. (1997) Science 275(5302): 983-86) and to have biological activity in cells (Holinger et al. J. Biol. Chem. 274; 13298-1330).
(§2) In addition, recombinant GST -Mcl-1 and GST-Bcl-xL fusion proteins were generated in E.coli and purified using glutathione-sepharose beads using conventional techniques known to those skilled in the fields of biochemistry and molecular biology, (methods for preparation are described in Strategies for Protein Purification and Characterization, Marshak, D, Kadonga, J, Burgess R, Knuth, M, Brennan, W, Sue-Hwa, L, CSH press, Cold Spring Harbor, N.Y.). Binding of the recombinant proteins to the fluorescent Bim BH3 domain was confirmed by titration of increasing concentrations of the recombinant proteins against a constant amount of labeled Bim peptide (16.65 nM). Quantitation of binding was accomplished by FP assay with mP measurements made on the Analyst-GT reader (Molecular Devices, Sunnyvale, Calif.).
Further, the ability of compound A to disrupt the interaction between the fluorescent Bim BH3 peptide and the two fusion proteins was assessed using a fluorescence polarization assay. The Bim peptide (in solution at 4 nano-Molar) and either GST-Mcl-1 (in solution at 12.5 nM) or GST-Bcl-xL (in solution at 11.8 nM) were first combined together in phosphate buttered saline buffer, and then the compound solution in DMSO was added to final concentrations ranging from 10 μM to 0.1 nM). Normally the unbound Bim polypeptide results in polarization of 5 mP units. Upon binding of the GST-Bcl-xL and GST-Mcl-1 fusion protein, polarization increased to 100 mP units.
Experiments are performed using the fluorescence polarization assay as described in Example 2. Either Bcl-xL or Mcl-1 fusion proteins were titrated and maximum mp shift indicate binding concentrations for drug titration studies, as described in Example 2. Compound II-19, was titrated from 10 μM to 0.1 nM in 2 fold serial dilution into the peptide/protein solution. The IC50 for blocking each BH3 peptide from Mcl-1 are assessed using FP, as described in Example 2.
Experiments are performed using the fluorescence polarization assay as described in Example 2. Either GST-Bcl-xL or GST-Mcl-1 fusion proteins were titrated and maximum mp shift indicate binding concentrations for drug titration studies, as described in Example 2. Compound II-20, was titrated from 10 μM to 0.1 nM in 2-fold serial dilution into the peptide/protein solution. The IC50 for blocking each BH3 peptide from Mcl-1 are assessed using FP, as described in Example 2.
Background: Fluorescence polarisation rises when a labelled molecule tumbles more slowly, as on binding a larger partner.

The nature of data set [2]: Dose escalation study in SCID mice. It is filed as in vivo. The following applies: 60 mg/kg. The procedure:
Compound A was tested in SCID mice at SRI International, Menlo Park, Calif. A dose escalation study determined that that the high dose of 60 mg/kg was well-tolerated and could be safely used for the xenograft study for all 3 test articles.

A short description of data set [3]: Microsome stability. The data set is classed as in vitro ADME.
Data set [4] has as its target T2, Bcl-xL (Homo sapiens, UniProt Q07817).
T2 construct: made in house; host or cells: E. coli
The data set is described as follows: Fluorescence polarization assay, Bim BH3 peptide binding to GST-Bcl-xL. The following applies: Bim-BH3-FITC peptide, read-out: IC50, inhibition of Bim-BH3 peptide binding to Bcl-xL.
Excerpt: as §1, §2
Further, the ability of compound A to disrupt the interaction between the fluorescent Bim BH3 peptide and the two fusion proteins was assessed using a fluorescence polarization assay. […]
(§3) Experiments are performed using the fluorescence polarization assay as described in Example 2. […] The IC50 for blocking each BH3 peptide from Mcl-1 are assessed using FP, as described in Example 2.
as §3

Data set [5] relates to NCI-H929 multiple myeloma cell line. In words: Cell viability MTS assay, NCI-H929. It is filed as cell-based. Conditions: Homo sapiens, 48 hours, read-out: EC50, cell killing in NCI-H929. The procedure: The lymphoid derived cell lines DHL-6 and DHL-10 were obtained from Anthony Letai of the Dana Father Cancer Research Institute, Boston, Mass. The […] derived cell line NCP-H929 was obtained irons, the NIH/NCI cell repository. AML-3 cells were obtained from Dr. Michael Andreef (MD Anderson Cancer Center, Houston, Tex.). Cells were grown in RPMI 1640 medium (GIBCO-BRL) supplemented with Pen-strep-glutamine (Gibco 10378) and 5% fetal bovine serum.
Cells were expanded in tissue culture in appropriate media and then subcultured into 96-well plates at a seeding density of 20,000-40,000 cells per well, and cells were treated with one or more compounds that were titrated info appropriate medium with FCS. Cell lines were treated with compound A at concentrations ranging from 25 μM to 25 nM. The BH3-mimetic obatoclax (Nguyen M et al. (2007), Proc. Natl. Acad. Sci. USA 104:19512-19517) was also tested against the SUDHL-6, SUDHL-10, and NCI-H929 cell lines. Cells were treated for 48 hours and scored for viability using the MTS assay (Promega). Growth inhibition was indicated as a percentage of control cell growth. Growth was determined by measuring the A570 (control cells)—A570 (treated cells)/A570 (control cells). EC50 values were calculated using Graphpad Prizm software.

The nature of data set [6]: Pharmacokinetics of compound A in the mouse. The data set is classed as in vivo. The following applies: for plasma clearance: i.p.; for half-life: plasma, ip. The procedure: Pharmacokinetic studies were conducted on compound A to assess plasma clearance and distribution in the mouse. Compound A was administered i.p. (as in the xenograft study) at 10 mg/kg.
Pharmacokinetic studies were conducted on compound A to assess plasma clearance and distribution in the mouse. Compounds were administered i.p. (as in the xenograft study) at 19 mg/kg.

For data set [7], the system named is CCRF-CEM cells. In words: CCRF-CEM leukemia xenograft study in SCID mice. The data set is classed as in vivo, mouse. Conditions: 60 mg/kg I.P. 5x/week. The procedure: The T Lymphoblastic Leukemic Cell Line CCRF-CEM was purchased from American Type Culture Consortium (ATCC). These cells were maintained in RPMI-1640 medium supplemented with 10% of fetal bovine serum, 2 mM glutamine, and 1 mM sodium pyruvate. The cells were cultured at 37° C. in 95% air/5% CO2 and 100% humidity. Medium in the culture was changed every 48 h and cells were passaged weekly.
For cell implantation to mice, cells were harvested by centrlfugation. Cell pellets were resuspended in PBS and counted using a hemacytometer and Trypan Blue dye to measure the number of viable cells in the suspension. The harvested cells were washed once with PBS and resuspended in serum-free medium at a density of 1×10^7 cells/100 μl.
For this xenograft study, animals were divided into 4 groups of 10 mice each. Groups were treated with test compounds by IP Injection at 60 mg/kg with or vehicle control.
Mice were inoculated with the CCRF-CEM cells (10,000,000 cells) were by tail vein injection. The cell suspensions had the tendency to form clumps. Therefore, during cell inoculation, the cell suspensions had to be mixed well before drawing into the syringe. Gauge 28 needles were used for the injection.
Test articles were dissolved in a mixture of DMSO/Cremophor/water (10:18:72) and administered to the animals in 100 μl aliquots 5× per week beginning 7 days after cells were transplanted into mice. Control dosage was performed under the same schedule.
Throughout the entire study, clinical observations were conducted daily for signs of leukemia development, including lethargy, ruffled fur, lack of responsiveness to stimuli, weight loss, and becoming moribund. On Day 21 after cell inoculation, blood samples were drawn from all groups. The white blood cells of all the blood samples were measured with a Nucleo Counter (ChemMetec, Denmark). […]
After 14 days of treatment, blood samples were taken from all the mice via orbital bleeding while mice were anesthetized using isoflurane inhalation. […] The number of white blood cells was then counted by standard methods.

T2 sequence (Q07817 whole entry): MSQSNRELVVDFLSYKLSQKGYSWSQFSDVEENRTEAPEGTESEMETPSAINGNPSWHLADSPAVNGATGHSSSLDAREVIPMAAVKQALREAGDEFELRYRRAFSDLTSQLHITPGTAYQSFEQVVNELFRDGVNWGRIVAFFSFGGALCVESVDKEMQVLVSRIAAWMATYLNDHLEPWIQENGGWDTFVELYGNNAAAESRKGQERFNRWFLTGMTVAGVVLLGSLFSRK

Consider `COc1cc(-c2ccc(Nc3ccccc3C(=O)O)c(OC)c2)ccc1Nc1ccccc1C(=O)O` [Compound A, redoxal], for which the IC50 was < 500 nM and 480 nM in data set [1]; more than 16000 nM in data set [4]. In addition, the “tolerability of the high dose” value in data set [2] is listed as “well-tolerated”. Moreover, in data set [3], the microsome stability result is “excellent”. The EC50 in data set [5] came out at 1000 nM. Further, the plasma clearance in data set [6] (10 mg/kg) and in data set [6] (19 mg/kg as printed) was 1.3 mL/min/kg each time. Besides, the half-life in data set [6] (10 mg/kg) and in data set [6] (19 mg/kg as printed) was 2.1 h throughout. In data set [7], the “survival outcome vs vehicle control” value is recorded as “statistically significant; also recorded: significantly improved”. Moreover, the “white blood cells vs vehicle control” value in data set [7] (after 14 days of treatment (Day 21), P<0.02 Students' t test) was “significantly reduced”. Also, the “mice still alive on Day 31” value in data set [7] (all vehicle mice died by Day 31) is 60%.
